These results are taken from patent US9340590B2 (priority 2011, dated 2016).

Positions of bridges follow the written chain, without caps; N, C: chain ends. Non-standard residues stand in square brackets, D forms with d. Residues, ends and D or L forms follow the SMILES beside them. Phe(4-COOH) = N[C@@H](Cc1ccc(C(=O)O)cc1)C(=O)O; Trp(1-Me) = Cn1cc(C[C@H](N)C(=O)O)c2ccccc21; Cit = NC(=O)NCCC[C@H](N)C(=O)O

What is called IC50 is the concentration needed to halve the response being measured. Low readings indicate greater potency, high ones weaker potency.

The target of one assay is hNav1.7 (Homo sapiens, UniProt Q15858). Description: cell-based. As to conditions: Nav1.7 Use IC50.
A further assay deals with hNav1.5 (Homo sapiens, UniProt Q14524). The experiment in a line: cell-based.
Chain of hNav1.5 (Q14524 whole entry, looked up): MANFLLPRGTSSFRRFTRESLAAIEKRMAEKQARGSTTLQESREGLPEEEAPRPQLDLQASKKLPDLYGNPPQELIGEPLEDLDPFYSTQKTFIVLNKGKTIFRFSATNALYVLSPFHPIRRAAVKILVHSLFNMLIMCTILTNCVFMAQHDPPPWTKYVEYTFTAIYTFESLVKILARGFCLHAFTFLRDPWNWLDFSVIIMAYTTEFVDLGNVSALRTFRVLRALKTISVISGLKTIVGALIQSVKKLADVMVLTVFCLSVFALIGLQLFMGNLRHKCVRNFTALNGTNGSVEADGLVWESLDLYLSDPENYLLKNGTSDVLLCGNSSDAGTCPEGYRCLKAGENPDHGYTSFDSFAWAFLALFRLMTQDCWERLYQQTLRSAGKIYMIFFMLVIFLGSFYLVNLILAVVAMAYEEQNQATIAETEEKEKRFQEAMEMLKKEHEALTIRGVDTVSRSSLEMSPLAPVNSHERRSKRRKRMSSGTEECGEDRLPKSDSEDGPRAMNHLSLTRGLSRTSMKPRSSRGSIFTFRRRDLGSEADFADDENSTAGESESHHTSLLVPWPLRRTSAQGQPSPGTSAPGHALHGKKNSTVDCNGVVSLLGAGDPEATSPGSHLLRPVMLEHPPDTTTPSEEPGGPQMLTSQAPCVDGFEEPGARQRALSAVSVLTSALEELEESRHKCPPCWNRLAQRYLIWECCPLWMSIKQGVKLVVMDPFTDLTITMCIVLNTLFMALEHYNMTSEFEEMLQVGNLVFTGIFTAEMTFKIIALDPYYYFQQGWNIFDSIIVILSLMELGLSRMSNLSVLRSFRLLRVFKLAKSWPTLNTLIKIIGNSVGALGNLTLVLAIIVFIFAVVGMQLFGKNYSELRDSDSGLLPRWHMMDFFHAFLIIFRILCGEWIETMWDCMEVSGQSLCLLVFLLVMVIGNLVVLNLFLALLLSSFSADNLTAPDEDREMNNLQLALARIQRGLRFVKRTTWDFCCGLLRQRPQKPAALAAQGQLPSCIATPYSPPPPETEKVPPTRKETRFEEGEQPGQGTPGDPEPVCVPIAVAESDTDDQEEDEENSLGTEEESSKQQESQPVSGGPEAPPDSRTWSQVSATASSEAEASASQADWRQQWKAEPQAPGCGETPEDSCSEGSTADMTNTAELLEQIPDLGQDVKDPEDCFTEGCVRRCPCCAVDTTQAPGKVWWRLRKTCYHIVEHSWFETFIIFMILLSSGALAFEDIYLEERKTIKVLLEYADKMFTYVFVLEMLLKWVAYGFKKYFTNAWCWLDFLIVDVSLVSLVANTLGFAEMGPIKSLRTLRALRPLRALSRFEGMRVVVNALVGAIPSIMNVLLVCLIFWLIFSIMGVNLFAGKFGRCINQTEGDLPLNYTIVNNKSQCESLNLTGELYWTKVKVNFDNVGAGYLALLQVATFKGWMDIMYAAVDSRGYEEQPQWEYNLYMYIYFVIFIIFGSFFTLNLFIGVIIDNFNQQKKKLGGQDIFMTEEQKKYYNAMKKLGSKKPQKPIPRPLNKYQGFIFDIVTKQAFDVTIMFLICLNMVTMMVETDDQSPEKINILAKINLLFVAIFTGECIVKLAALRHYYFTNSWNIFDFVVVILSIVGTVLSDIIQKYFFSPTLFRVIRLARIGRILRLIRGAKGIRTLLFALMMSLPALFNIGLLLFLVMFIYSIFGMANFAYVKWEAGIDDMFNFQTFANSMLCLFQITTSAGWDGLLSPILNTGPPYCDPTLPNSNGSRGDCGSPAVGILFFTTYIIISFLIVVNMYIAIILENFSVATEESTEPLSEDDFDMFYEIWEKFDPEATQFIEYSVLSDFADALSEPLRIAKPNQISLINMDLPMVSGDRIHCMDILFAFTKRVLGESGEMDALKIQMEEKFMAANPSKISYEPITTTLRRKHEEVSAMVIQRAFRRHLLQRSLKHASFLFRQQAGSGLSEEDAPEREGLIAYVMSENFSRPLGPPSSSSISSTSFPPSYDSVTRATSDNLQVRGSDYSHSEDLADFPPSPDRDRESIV

Chain of hNav1.7 (Q15858 whole entry, looked up): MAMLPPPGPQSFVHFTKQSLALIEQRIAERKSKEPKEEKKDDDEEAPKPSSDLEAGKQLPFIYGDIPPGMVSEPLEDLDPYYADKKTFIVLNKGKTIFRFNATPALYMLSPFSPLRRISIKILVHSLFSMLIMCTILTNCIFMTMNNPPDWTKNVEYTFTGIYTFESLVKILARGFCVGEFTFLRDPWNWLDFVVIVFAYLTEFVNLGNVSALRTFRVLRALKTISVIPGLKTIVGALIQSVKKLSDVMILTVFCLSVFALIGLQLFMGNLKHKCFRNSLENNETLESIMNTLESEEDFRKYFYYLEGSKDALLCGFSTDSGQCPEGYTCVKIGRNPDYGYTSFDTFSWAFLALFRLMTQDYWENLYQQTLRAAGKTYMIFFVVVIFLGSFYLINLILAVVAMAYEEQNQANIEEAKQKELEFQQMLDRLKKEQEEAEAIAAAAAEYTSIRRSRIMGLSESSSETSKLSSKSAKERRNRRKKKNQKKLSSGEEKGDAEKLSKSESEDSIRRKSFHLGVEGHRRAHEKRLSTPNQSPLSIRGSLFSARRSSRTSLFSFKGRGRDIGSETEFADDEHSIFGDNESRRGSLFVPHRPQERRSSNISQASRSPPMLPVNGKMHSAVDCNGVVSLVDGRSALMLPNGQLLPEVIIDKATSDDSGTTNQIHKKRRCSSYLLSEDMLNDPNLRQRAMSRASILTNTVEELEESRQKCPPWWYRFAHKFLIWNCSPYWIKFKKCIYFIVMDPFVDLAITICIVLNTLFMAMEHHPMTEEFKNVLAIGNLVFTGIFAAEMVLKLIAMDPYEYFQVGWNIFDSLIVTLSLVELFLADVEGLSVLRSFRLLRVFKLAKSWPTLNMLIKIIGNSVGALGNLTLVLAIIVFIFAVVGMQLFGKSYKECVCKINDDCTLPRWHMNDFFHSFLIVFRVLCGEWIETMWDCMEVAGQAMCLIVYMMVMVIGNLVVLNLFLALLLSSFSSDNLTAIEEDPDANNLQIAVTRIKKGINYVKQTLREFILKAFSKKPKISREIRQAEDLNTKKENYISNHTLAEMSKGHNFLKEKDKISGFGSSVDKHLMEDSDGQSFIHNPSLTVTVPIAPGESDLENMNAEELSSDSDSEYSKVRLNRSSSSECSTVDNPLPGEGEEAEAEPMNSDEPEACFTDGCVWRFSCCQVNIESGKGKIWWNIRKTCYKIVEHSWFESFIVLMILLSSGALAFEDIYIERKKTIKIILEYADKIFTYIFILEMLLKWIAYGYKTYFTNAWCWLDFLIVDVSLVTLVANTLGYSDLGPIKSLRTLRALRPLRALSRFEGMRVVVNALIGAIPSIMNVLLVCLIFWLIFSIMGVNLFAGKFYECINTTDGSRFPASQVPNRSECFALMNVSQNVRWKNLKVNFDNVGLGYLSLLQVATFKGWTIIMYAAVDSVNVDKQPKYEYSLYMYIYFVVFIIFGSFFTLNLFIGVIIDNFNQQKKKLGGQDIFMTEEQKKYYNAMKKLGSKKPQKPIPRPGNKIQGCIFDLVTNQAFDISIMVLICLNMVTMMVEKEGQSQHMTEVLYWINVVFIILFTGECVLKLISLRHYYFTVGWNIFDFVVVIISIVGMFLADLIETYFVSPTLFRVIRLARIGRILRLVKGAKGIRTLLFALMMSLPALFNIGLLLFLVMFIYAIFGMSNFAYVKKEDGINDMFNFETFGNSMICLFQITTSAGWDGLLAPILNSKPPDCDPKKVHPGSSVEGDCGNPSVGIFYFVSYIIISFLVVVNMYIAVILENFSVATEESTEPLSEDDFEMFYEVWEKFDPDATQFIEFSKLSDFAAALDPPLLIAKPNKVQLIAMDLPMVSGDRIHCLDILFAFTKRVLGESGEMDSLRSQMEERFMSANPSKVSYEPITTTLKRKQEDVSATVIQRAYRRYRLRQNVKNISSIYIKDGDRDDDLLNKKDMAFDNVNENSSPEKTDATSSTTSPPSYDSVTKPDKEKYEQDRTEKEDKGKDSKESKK

With `CC[C@H](C)[C@@H]1NC(=O)[C@@H]2CSSC[C@@H]3NC(=O)[C@H](C(C)C)NC(=O)[C@H](CC(C)C)NC(=O)[C@H](CC(N)=O)NC(=O)[C@@H]4CCCN4C(=O)[C@H](CCCNC(=N)N)NC(=O)[C@H](CSSC[C@H](NC(=O)[C@@H](N)CC(=O)O)C(=O)N[C@@H](CC(C)C)C(=O)NCC(=O)N[C@@H](Cc4ccccc4)C(=O)N[C@@H](CCSC)C(=O)N[C@@H](CCCNC(=N)N)C(=O)N[C@@H](CCCCN)C(=O)N2)NC(=O)[C@H](CSSC[C@@H](C(=O)N[C@@H](CCCCN)C(=O)N[C@@H](Cc2ccc(O)cc2)C(=O)N[C@@H](Cc2ccc(C(=O)O)cc2)C(=O)N[C@@H](Cc2ccccc2)C(N)=O)NC(=O)[C@H](Cc2c[nH]c4ccccc24)NC(=O)[C@H](CCCCN)NC(=O)[C@H](Cc2c[nH]cn2)NC(=O)[C@H]([C@@H](C)O)NC(=O)[C@H](CCCNC(=N)N)NC(=O)[C@H](CO)NC3=O)NC(=O)[C@H](CCCCN)NC(=O)[C@H](CC(=O)O)NC(=O)[C@H](CC(N)=O)NC(=O)[C@H](CC(=O)O)NC(=O)[C@@H]2CCCN2C1=O` [[4CO2-F33]GpTx-1(1-34)] (H-DCLGFMRKCIPDNDKCCRPNLVCSRTHKWCKY[Phe(4-COOH)]F-NH2; disulfide 2-17, 9-23, 16-30), the IC50 at hNav1.7 was 3 nM; against hNav1.5, > 10000 nM.

As for `CC[C@H](C)[C@@H]1NC(=O)[C@@H]2CSSC[C@@H]3NC(=O)[C@H](C(C)C)NC(=O)[C@H](CC(C)C)NC(=O)[C@H](CC(N)=O)NC(=O)[C@@H]4CCCN4C(=O)[C@H](CCCNC(=N)N)NC(=O)[C@H](CSSC[C@H](NC(=O)[C@@H](N)CC(=O)O)C(=O)N[C@@H](CC(C)C)C(=O)NCC(=O)NC(C)(C)C(=O)N[C@@H](CC(C)C)C(=O)N[C@@H](CCCNC(=N)N)C(=O)N[C@@H](CCCCN)C(=O)N2)NC(=O)[C@H](CSSC[C@@H](C(=O)N[C@@H](CCCCN)C(=O)N[C@@H](Cc2ccc(O)cc2)C(=O)N[C@H](C(=O)N[C@@H](Cc2ccccc2)C(N)=O)C(C)C)NC(=O)[C@H](Cc2c[nH]c4ccccc24)NC(=O)[C@H](CCCCN)NC(=O)[C@H](Cc2c[nH]cn2)NC(=O)[C@H]([C@@H](C)O)NC(=O)[C@H](CCCNC(=N)N)NC(=O)[C@H](CO)NC3=O)NC(=O)[C@H](CCCCN)NC(=O)[C@H](CC(=O)O)NC(=O)[C@H](CC(N)=O)NC(=O)[C@H](CC(=O)O)NC(=O)[C@@H]2CCCN2C1=O` [[Aib5;Leu6]GpTx-1(1-34)], the results for the IC50 on hNav1.7 and against hNav1.5 were 20 nM and > 10000 nM, respectively.

In the case of `CC[C@H](C)[C@@H]1NC(=O)[C@@H]2CSSC[C@@H]3NC(=O)[C@H](C(C)C)NC(=O)[C@H](CC(C)C)NC(=O)[C@H](CC(N)=O)NC(=O)[C@@H]4CCCN4C(=O)[C@H](CCCNC(=N)N)NC(=O)[C@H](CSSC[C@H](NC(=O)[C@@H](N)CC(=O)O)C(=O)N[C@@H](CC(C)C)C(=O)NCC(=O)N[C@@H](C)C(=O)N[C@@H](Cc4ccccc4)C(=O)N[C@@H](CCCNC(=N)N)C(=O)N[C@@H](CCCCN)C(=O)N2)NC(=O)[C@H](CSSC[C@@H](C(=O)N[C@@H](CCCCN)C(=O)N[C@@H](Cc2ccc(O)cc2)C(=O)N[C@H](C(=O)N[C@@H](Cc2ccccc2)C(N)=O)C(C)C)NC(=O)[C@H](Cc2c[nH]c4ccccc24)NC(=O)[C@H](CCCCN)NC(=O)[C@H](Cc2c[nH]cn2)NC(=O)[C@H]([C@@H](C)O)NC(=O)[C@H](C)NC(=O)[C@H](CO)NC3=O)NC(=O)[C@H](CCCCN)NC(=O)[C@H](CC(=O)O)NC(=O)[C@H](CC(N)=O)NC(=O)[C@H](CC(=O)O)NC(=O)[C@@H]2CCCN2C1=O` [[Ala5,25;Phe6]GpTx-1(1-34)] (H-DCLGAFRKCIPDNDKCCRPNLVCSATHKWCKYVF-NH2; disulfide 2-17, 9-23, 16-30), the IC50 is 86 nM against hNav1.7 and > 10000 nM against hNav1.5.

For `CC[C@H](C)[C@@H]1NC(=O)[C@@H]2CSSC[C@@H]3NC(=O)[C@H](C(C)C)NC(=O)[C@H](CC(C)C)NC(=O)[C@H](CC(N)=O)NC(=O)[C@@H]4CCCN4C(=O)[C@H](CCCNC(=N)N)NC(=O)[C@H](CSSC[C@H](NC(=O)[C@@H](N)CC(=O)O)C(=O)N[C@@H](CC(C)C)C(=O)NCC(=O)N[C@@H](C)C(=O)N[C@@H](Cc4cn(C)c5ccccc45)C(=O)N[C@@H](CCCNC(=N)N)C(=O)N[C@@H](CCCCN)C(=O)N2)NC(=O)[C@H](CSSC[C@@H](C(=O)N[C@@H](CCCCN)C(=O)N[C@@H](Cc2ccc(O)cc2)C(=O)N[C@H](C(=O)N[C@@H](Cc2ccccc2)C(N)=O)C(C)C)NC(=O)[C@H](Cc2c[nH]c4ccccc24)NC(=O)[C@H](CCCCN)NC(=O)[C@H](Cc2c[nH]cn2)NC(=O)[C@H]([C@@H](C)O)NC(=O)[C@H](CCCNC(=N)N)NC(=O)[C@H](CO)NC3=O)NC(=O)[C@H](CCCCN)NC(=O)[C@H](CC(=O)O)NC(=O)[C@H](CC(N)=O)NC(=O)[C@H](CC(=O)O)NC(=O)[C@@H]2CCCN2C1=O` [[Ala5;1′NMeW6]GpTx-1(1-34)], the IC50 at hNav1.7 was 51 nM; on hNav1.5, > 10000 nM.

In the case of `CC[C@H](C)[C@@H]1NC(=O)[C@@H]2CSSC[C@@H]3NC(=O)[C@H](C(C)C)NC(=O)[C@H](CC(C)C)NC(=O)[C@H](CC(N)=O)NC(=O)[C@@H]4CCCN4C(=O)[C@H](CCCNC(=N)N)NC(=O)[C@H](CSSC[C@H](NC(=O)[C@@H](N)CC(=O)O)C(=O)N[C@@H](CC(C)C)C(=O)NCC(=O)N[C@@H](C)C(=O)N[C@@H](CCSC)C(=O)N[C@@H](CCCNC(=N)N)C(=O)N[C@@H](CCCCN)C(=O)N2)NC(=O)[C@H](CSSC[C@@H](C(=O)N[C@@H](CCCCN)C(=O)N[C@@H](Cc2cn(C)c4ccccc24)C(=O)N[C@H](C(=O)N[C@@H](Cc2ccccc2)C(N)=O)C(C)C)NC(=O)[C@H](Cc2c[nH]c4ccccc24)NC(=O)[C@H](CCCCN)NC(=O)[C@H](Cc2c[nH]cn2)NC(=O)[C@H]([C@@H](C)O)NC(=O)[C@H](CCCNC(=N)N)NC(=O)[C@H](CO)NC3=O)NC(=O)[C@H](CCCCN)NC(=O)[C@H](CC(=O)O)NC(=O)[C@H](CC(N)=O)NC(=O)[C@H](CC(=O)O)NC(=O)[C@@H]2CCCN2C1=O` [[Ala5;1′NMeW32]GpTx-1(1-34)] (H-DCLGAMRKCIPDNDKCCRPNLVCSRTHKWCK[Trp(1-Me)]VF-NH2; disulfide 2-17, 9-23, 16-30), the IC50 against hNav1.7 is 18 nM; at hNav1.5, > 10000 nM.

On to `CSCC[C@@H]1NC(=O)[C@H](C)NC(=O)CNC(=O)[C@H](CC(C)C)NC(=O)[C@@H](NC(=O)[C@@H](N)CC(=O)O)CSSC[C@@H]2NC(=O)[C@@H]3CSSC[C@@H](C(=O)N[C@@H](CCCCN)C(=O)N[C@@H](Cc4ccc(O)cc4)C(=O)N[C@H](C(=O)N[C@@H](Cc4ccccc4)C(N)=O)C(C)C)NC(=O)[C@H](Cc4c[nH]c5ccccc45)NC(=O)[C@H](CCCCN)NC(=O)[C@H](Cc4c[nH]cn4)NC(=O)[C@H]([C@@H](C)O)NC(=O)[C@H](CCCNC(=N)N)NC(=O)[C@H](CO)NC(=O)[C@H](CSSC[C@H](NC(=O)[C@H](CCCCN)NC(=O)[C@H](CCCNC(=N)N)NC1=O)C(=O)N[C@@H](CC(=O)O)C(=O)N1CCC[C@H]1C(=O)N[C@@H](CCC(=O)O)C(=O)N[C@@H](CC(N)=O)C(=O)N[C@@H](CC(=O)O)C(=O)N[C@@H](CCCCN)C(=O)N3)NC(=O)[C@H](C(C)C)NC(=O)[C@H](CC(C)C)NC(=O)[C@H](CC(N)=O)NC(=O)[C@@H]1CCCN1C(=O)[C@H](CCCNC(=N)N)NC2=O` [[Ala5;Asp10;Glu12]GpTx-1(1-34)] (H-DCLGAMRKCDPENDKCCRPNLVCSRTHKWCKYVF-NH2; disulfide 2-17, 9-23, 16-30), for which the IC50 against hNav1.7 was 554 nM; against hNav1.5, > 10000 nM.

`CSCC[C@@H]1NC(=O)[C@H](C)NC(=O)CNC(=O)[C@H](CC(C)C)NC(=O)[C@@H](NC(=O)[C@@H](N)CC(=O)O)CSSC[C@@H]2NC(=O)[C@@H]3CSSC[C@@H](C(=O)N[C@@H](CCCCN)C(=O)N[C@@H](Cc4ccc(O)cc4)C(=O)N[C@H](C(=O)N[C@@H](Cc4ccccc4)C(N)=O)C(C)C)NC(=O)[C@H](Cc4c[nH]c5ccccc45)NC(=O)[C@H](CCCCN)NC(=O)[C@H](Cc4c[nH]cn4)NC(=O)[C@H]([C@@H](C)O)NC(=O)[C@H](CCCNC(=N)N)NC(=O)[C@H](CO)NC(=O)[C@H](CSSC[C@H](NC(=O)[C@H](CCCCN)NC(=O)[C@H](CCCNC(=N)N)NC1=O)C(=O)N[C@@H](CC(=O)O)C(=O)N1CCC[C@H]1C(=O)N[C@@H](CC(=O)O)C(=O)N[C@@H](CC(N)=O)C(=O)N[C@@H](CC(=O)O)C(=O)N[C@@H](CCCCN)C(=O)N3)NC(=O)[C@H](C(C)C)NC(=O)[C@H](CC(C)C)NC(=O)[C@H](CC(N)=O)NC(=O)[C@@H]1CCCN1C(=O)[C@H](CCCNC(=N)N)NC2=O` [[Ala5;Asp10]GpTx-1(1-34)] (H-DCLGAMRKCDPDNDKCCRPNLVCSRTHKWCKYVF-NH2; disulfide 2-17, 9-23, 16-30): the IC50 against hNav1.7 was 50 nM; against hNav1.5 it was > 10000 nM.

For the compound `CC[C@H](C)[C@@H]1NC(=O)[C@@H]2CSSC[C@@H]3NC(=O)[C@H](C(C)C)NC(=O)[C@H](CC(C)C)NC(=O)[C@H](CC(N)=O)NC(=O)[C@@H]4CCCN4C(=O)[C@H](CCCNC(=N)N)NC(=O)[C@H](CSSC[C@H](NC(=O)[C@@H](N)CC(=O)O)C(=O)N[C@@H](CC(C)C)C(=O)NCC(=O)N[C@@H](C)C(=O)N[C@@H](CCSC)C(=O)N[C@@H](CCCNC(=N)N)C(=O)N[C@@H](CCCCN)C(=O)N2)NC(=O)[C@H](CSSC[C@@H](C(=O)N[C@@H](CCCCN)C(=O)N[C@@H](Cc2ccc(O)cc2)C(=O)N[C@H](C(=O)N[C@@H](Cc2ccccc2)C(N)=O)C(C)C)NC(=O)[C@H](Cc2c[nH]c4ccccc24)NC(=O)[C@H](CCCNC(N)=O)NC(=O)[C@H](Cc2c[nH]cn2)NC(=O)[C@H]([C@@H](C)O)NC(=O)[C@H](CCCNC(=N)N)NC(=O)[C@H](CO)NC3=O)NC(=O)[C@H](CCCCN)NC(=O)[C@H](CC(=O)O)NC(=O)[C@H](CC(N)=O)NC(=O)[C@H](CC(=O)O)NC(=O)[C@@H]2CCCN2C1=O` [[Ala5;Cit28]GpTx-1(1-34)] (H-DCLGAMRKCIPDNDKCCRPNLVCSRTH[Cit]WCKYVF-NH2; disulfide 2-17, 9-23, 16-30), the figures for the IC50 on hNav1.7 and against hNav1.5 were 30 nM and > 10000 nM, respectively.
